# From publication PMC7360687, “The Regulator PltZ Regulates a Putative ABC Transporter System PltIJKNOP of Pseudomonas aeruginosa ATCC 27853 in Response to the Antimicrobial 2,4-Diacetylphloroglucinol” (Frontiers in Microbiology, 2020)
# Target: T1, PltZ
# T1 construct: full gene cloned in pET-28b-derived vector, E. coli BL21 (DE3), Ni-NTA purified (His tag implied)
# Assay: isothermal titration calorimetry
# Parameters: species or system Pseudomonas aeruginosa
# Conditions: 25 °C; 20 mM Tris pH 8.0, 100 mM NaCl; independent binding model; read-out: binding constant
smiles,measurement,value
"CC(=O)c1c(O)cc(O)c(C(C)=O)c1O [2,4-diacetylphloroglucinol]",Kd,~190 nM
